How the values were obtained:
[1] = system: GK rats; experiment: Combinational effect with insulin secretagogue (gliclazide) using GK rats (Example 2); type: in vivo; settings: combined with gliclazide, compared with alone groups, same experiment as Example 1
Protocol: The compound (II) (100 mg/kg) was orally administered to C57BL/6NCrj mice (11 week age, male) and soon after that, gliclazide (3 mg/kg) was orally administered. After administration, the blood was taken from their caudal veins over time to determine the blood glucose level. Area under the curve of blood glucose level changes until 70 minutes after the administration was set as an index and variations from a control group (Vehicle administered group) were compared.
The same experiment is conducted as that of Example 1 except that the compounds of the Compound Nos. 6, 8, 62, 80, 81, 88, 91, […], 105, 106, 129, 130, 131 and 132 in Tables 1 and 2 are used instead of the compound (II), and GK rats are used instead of normal mice.

[2] = system: KK-Ay mice; experiment: Combinational effect with biguanide (metformin) using KK-Ay mice (Example 4); type: in vivo; settings: combined with metformin, compared with alone groups, same experiment as Example 3
Protocol: The compound (III) (30 mg/kg) was orally administered to C57BL/KsJ-db/bdJcl mice (10 week age, male) and soon after that, metformin (100 mg/kg) was orally administered. 60 minutes after administration, the blood was taken from their caudal veins to determine the blood glucose level.
The same experiment is conducted as that of Example 3 except that the compounds of the Compound Nos. 6, 8, 62, 80, 81, 88, 91, 96, 105, 106, 129, 130, 131 and 132 in Tables 1 and 2 are used instead of the compound (III), and KK-Ay mice are used instead of db/bd mice.

[3] = system: C57BL/KsJ-db/bdJcl mice; experiment: Combinational effect with insulin using db/db mice (Examples 7 and 8); type: in vivo; settings: combined with insulin 0.2 U/kg, compared with alone groups, same experiment as Example 3
Protocol: The compound (III) (30 mg/kg) was orally administered to C57BL/KsJ-db/bdJcl mice (10 week age, male) and soon after that, metformin (100 mg/kg) was orally administered. 60 minutes after administration, the blood was taken from their caudal veins to determine the blood glucose level. The same experiment is conducted as that of Example 3 except that insulin (0.2 U/kg) is used instead of metformin. […] The same experiment is conducted as that of Example 7 except that the compounds of the Compound Nos. 6, 8, 62, 80, 81, 88, 91, 96, 105, 106, 129, 130, 131 and 132 in Tables 1 and 2 are used instead of the compound (III).

[4] = system: C57BL/KsJ-db/bdJcl mice; experiment: Combinational effect with glitazone (pioglitazone) using db/db mice, oral glucose load (Examples 5 and 6); type: in vivo; settings: single oral administration combined with pioglitazone 10 mg/kg/day oral for 10 days, compared with alone groups
Protocol: The oral glucose load experiments are conducted using C57BL/KsJ-db/bdJcl mice in the conditions with or without the oral administeration of pioglitazone (10 mg/kg/day) for 10 days and with or without a single oral administration of the compound (III).
The same experiment is conducted as that of Example 5 except that the compounds of the Compound Nos. 6, 8, 62, 80, 81, 88, 91, 96, 105, 106, 129, 130, 131 and 132 in Tables 1 and 2 are used instead of the compound (III).

[5] = system: adipose cells of rats; experiment: Evaluation of the sugar transportation activity (2-[14C(U)]-deoxy-D-glucose incorporation); type: cell-based, Wistar rats; settings: concentration with reinforcing effect of 50% of that of insulin (100 nM) = 100%; rat adipose cells, 30 min pre-culture at 37° C., 5 min uptake
Protocol: 1. Preparation of Adipose Cells of Rats:
After the decapitation and venesection of 6 male Wistar rats (body weight: 150 to 200 g), an incision was made in the abdomen of each rat to extract 6 g in total of epididymal adipose tissues. The tissues were finely cut into 2 mm×2 mm pieces in 6 ml of KRH (Krebs-Ringer Hepes, composition: 130 mM of sodium chloride, 4.7 mM of potassium chloride, 1.2 mM of potassium dihydrogenphosphate, 1.2 mM of magnesium sulfate, 1 mM of calcium chloride and 25 mM of Hepes, pH=7.6) containing 5% of BSA (bovine serum albumin). 24 mg of collagenase (type I) was added thereto and the digestion treatment was conducted for about 40 minutes to obtain about 6 ml of isolated adipose cells. The collagenase was removed by the buffer exchange. 2% BSA/KRH solution was added to the residue for the re-suspension to obtain 45 ml of an adipose cell suspension.
2. Evaluation of the Sugar Transportation Activity:
The sugar transportation activity of the compound (I) of the present invention was evaluated with reference to a method described in a literature [Annual Review of Biochemistry, Vol. 55, p. 1059 (1986)]. In the test, 200 μL of the adipose cell suspension was poured in each polystyrene test tube, 100 μL of the solution of the test substance (by dilution of 10 mg/mL dimethyl sulfoxide solution with KRH) was added thereto, and the obtained mixture was shaken and then cultured at 37° C. for 30 minutes. The sugar transportation activity was evaluated by measuring the quantity of 2-[^14C(U)]-deoxy-D-glucose incorporated per a unit time. Namely, 2-[^14C(U)]-deoxy-D-glucose was added to the adipose cell suspension after the pre-culture (the final concentration: 0.5 μCi/sample). 5 minutes after, cytochalasin B (final concentration: 10 μM) was added to the mixture to terminate the sugar transportation. After forming a dinonyl phthalate layer, the obtained mixture was centrifuged to separate the adipose cells from the buffer. The quantity of 2-[^14C(U)]-deoxy-D-glucose contained in the adipose cell layer was determined with a liquid scintillation counter to determine the quantity of the incorporated sugar. In this evaluation system, when insulin (100 nM) having the effect of reinforcing the sugar transportation was used, the effect was about 7 times as high as that obtained in the insulin-free control group.
The results of the evaluation of the sugar transportation activity obtained by using 100 μg/mL of the compound (I) of the present invention are shown in Table 3. The sugar transportation activity in Table 3 was evaluated on the basis of the reinforcing effect of insulin (100 nM). The sugar transportation activity A in Table 3 was determined in terms of the concentration (EC50: μg/mL) of a test compound, having a reinforcing effect corresponding to 50% on the basis of the reinforcing effect of insulin (100 nM) having a reinforcing effect of 100%.
The symbols in Table 3 are as follows: • No: Compound No. in Tables 1 and 2, and • A: sugar transportation activity.

| Structure (SMILES) | hypoglycemic action (blood glucose level) [1] | hypoglycemic action (blood glucose level) [2] | hypoglycemic action (blood glucose level) [3] | hypoglycemic action (oral glucose load) [4] | A: sugar transportation activity (EC50) [5] |
| --- | --- | --- | --- | --- | --- |
| CCOCC(=O)N1[C@@H]2CCCC[C@H]2NC2=C(C(=O)NC2)[C@H]1c1ccccc1 [Compound 132] | remarkable hypoglycemic action | remarkable hypoglycemic action | remarkable hypoglycemic action | remarkable hypoglycemic action | 2.7 µg/mL |
| CSc1ccccc1[C@@H]1C2=C(CNC2=O)N[C@@H]2CCCC[C@H]2N1C(=O)CO [Compound 81] | remarkable hypoglycemic action | remarkable hypoglycemic action | remarkable hypoglycemic action | remarkable hypoglycemic action | 2 µg/mL |
| CCC(=O)N1[C@@H]2CCCC[C@H]2NC2=C(C(=O)NC2)[C@H]1c1cccc(F)c1C [Compound 106] | remarkable hypoglycemic action | remarkable hypoglycemic action | remarkable hypoglycemic action | remarkable hypoglycemic action | 0.6 µg/mL |
| O=C1NCC2=C1[C@@H](c1ccccc1OC1CC1)N(C(=O)CO)[C@@H]1CCCC[C@H]1N2 [Compound 62] | remarkable hypoglycemic action | remarkable hypoglycemic action | remarkable hypoglycemic action | remarkable hypoglycemic action | 0.5 µg/mL |
| CC(=O)N1[C@@H]2CCCC[C@H]2NC2=C(C(=O)NC2)[C@H]1c1ccccc1C1CC1 [Compound 105] | remarkable hypoglycemic action | remarkable hypoglycemic action | remarkable hypoglycemic action | remarkable hypoglycemic action | 0.5 µg/mL |
| CSc1ccccc1[C@@H]1C2=C(CNC2=O)N[C@@H]2CCCC[C@H]2N1C(C)=O [Compound 80] | remarkable hypoglycemic action | remarkable hypoglycemic action | remarkable hypoglycemic action | remarkable hypoglycemic action | 5 µg/mL |
| COc1ccccc1[C@@H]1C2=C(CNC2=O)N[C@@H]2CCCC[C@H]2N1C(=O)CC(F)(F)F [Compound 6] | remarkable hypoglycemic action | remarkable hypoglycemic action | remarkable hypoglycemic action | remarkable hypoglycemic action | 0.47 µg/mL |
| O=C1NCC2=C1[C@@H](c1ccccc1)N(C(=O)CO)[C@@H]1CCCC[C@H]1N2 [Compound 131] | remarkable hypoglycemic action | remarkable hypoglycemic action | remarkable hypoglycemic action | remarkable hypoglycemic action | 1.5 µg/mL |
| CC(=O)N1[C@@H]2CCCC[C@H]2NC2=C(C(=O)NC2)[C@H]1c1ccccc1 [Compound 129] | remarkable hypoglycemic action | remarkable hypoglycemic action | remarkable hypoglycemic action | remarkable hypoglycemic action | – |
| CCc1ccccc1[C@@H]1C2=C(CNC2=O)N[C@@H]2CCCC[C@H]2N1C(=O)CC(=O)OC [Compound 95] | – | – | – | – | 2 µg/mL |
| COc1cc(F)ccc1[C@@H]1C2=C(CNC2=O)N[C@@H]2CCCC[C@H]2N1C(C)=O [Compound 72] | – | – | – | – | 8 µg/mL |
